What was measured:
[1] = tested on: A549/ATCC; assay: NCI sixty human tumor cell line screen, Non-small-cell-lung panel; assay type: cell-based; details: NCI protocol
Description: (§1) The in vitro anticancer activity studies for these N-((1-benzyl-1H-1,2,3-triazol-4-yl)methyl) arylamide analogues were carried out at the National Cancer Institute, USA.
(§2) The N-((1-benzyl-1H-1,2,3-triazol-4-yl)methyl)arylamide analogues have been tested at NCI, USA, against sixty human tumor cell lines derived from nine cancer types (leukemia, non-small cell lung cancer, colon cancer, CNS cancer, melanoma cancer, ovarian cancer, renal cancer, prostate cancer and breast cancer). For these compounds results are expressed as growth inhibition (GI50) values as per NCI protocol.

[2] = tested on: EKVX; assay: as above; assay type: cell-based; details: NCI protocol
Description: as §1, §2

[3] = tested on: HOP-62; assay: as above; assay type: cell-based; details: HOP-62, Non-small-cell-lung, NCI protocol
Description: as §1, §2

[4] = tested on: NCI-H226; assay: as above; assay type: cell-based; details: NCI protocol
Description: as §1, §2

[5] = tested on: NCI-H460; assay: as above; assay type: cell-based; details: NCI protocol
Description: as §1, §2

[6] = tested on: NCI-H522; assay: as above; assay type: cell-based; details: NCI protocol
Description: as §1, §2

[7] = tested on: COLO 205; assay: NCI sixty human tumor cell line screen, Colon panel; assay type: cell-based; details: COLO 205, Colon, NCI protocol
Description: as §1, §2

[8] = tested on: HCT-116; assay: as above; assay type: cell-based; details: HCT-116, Colon, NCI protocol
Description: as §1, §2

[9] = tested on: HT29; assay: as above; assay type: cell-based; details: HT-29, NCI protocol
Description: as §1, §2

[10] = tested on: KM12; assay: as above; assay type: cell-based; details: NCI protocol
Description: as §1, §2

[11] = tested on: SW-620; assay: as above; assay type: cell-based; details: SW-620, Colon, NCI protocol
Description: as §1, §2

[12] = tested on: SF-268; assay: NCI sixty human tumor cell line screen, CNS panel; assay type: cell-based; details: SF-268, CNS, NCI protocol
Description: as §1, §2

[13] = tested on: SF-295; assay: NCI sixty human tumor cell line screen, CNS panel; assay type: cell-based; details: SF-295, CNS, NCI protocol
Description: as §1, §2

[14] = tested on: SF-539; assay: NCI sixty human tumor cell line screen, CNS panel; assay type: cell-based; details: SF-539, CNS, NCI protocol
Description: as §1, §2

[15] = tested on: SNB-19; assay: NCI sixty human tumor cell line screen, CNS panel; assay type: cell-based; details: SNB-19, CNS, NCI protocol
Description: as §1, §2

[16] = tested on: SNB-75; assay: NCI sixty human tumor cell line screen, CNS panel; assay type: cell-based; details: SNB-75, CNS, NCI protocol
Description: as §1, §2

[17] = tested on: U251; assay: NCI sixty human tumor cell line screen, CNS panel; assay type: cell-based; details: U-251, NCI protocol
Description: as §1, §2

[18] = tested on: LOX IMVI; assay: NCI sixty human tumor cell line screen, Melanoma panel; assay type: cell-based; details: NCI protocol
Description: as §1, §2

[19] = tested on: M14; assay: as above; assay type: cell-based; details: NCI protocol
Description: as §1, §2

[20] = tested on: MDA-MB-435; assay: as above; assay type: cell-based; details: MDA-MB-435, Melanoma, NCI protocol
Description: as §1, §2

[21] = tested on: SK-MEL-28; assay: as above; assay type: cell-based; details: SK-MEL-28, Melanoma, NCI protocol
Description: as §1, §2

[22] = tested on: SK-MEL-2; assay: as above; assay type: cell-based; details: SK-MEL-2, Melanoma, NCI protocol
Description: as §1, §2

[23] = tested on: SK-MEL-5; assay: as above; assay type: cell-based; details: SK-MEL-5, Melanoma, NCI protocol
Description: as §1, §2

[24] = tested on: UACC-62; assay: as above; assay type: cell-based; details: UACC-62, Melanoma, NCI protocol
Description: as §1, §2

[25] = tested on: NCI/ADR-RES; assay: NCI sixty human tumor cell line screen, Ovarian panel; assay type: cell-based; details: NCI protocol
Description: as §1, §2

[26] = tested on: OVCAR-3; assay: as above; assay type: cell-based; details: OVCAR-3, Ovarian, NCI protocol
Description: as §1, §2

[27] = tested on: OVCAR-4; assay: as above; assay type: cell-based; details: OVCAR-4, Ovarian, NCI protocol
Description: as §1, §2

[28] = tested on: OVCAR-8; assay: as above; assay type: cell-based; details: OVCAR-8, Ovarian, NCI protocol
Description: as §1, §2

[29] = tested on: SK-OV-3; assay: as above; assay type: cell-based; details: SK-OV-3, Ovarian, NCI protocol
Description: as §1, §2

[30] = tested on: A498; assay: NCI sixty human tumor cell line screen, Renal panel; assay type: cell-based; details: NCI protocol
Description: as §1, §2

[31] = tested on: ACHN; assay: as above; assay type: cell-based; details: NCI protocol
Description: as §1, §2

[32] = tested on: CAKI-1; assay: as above; assay type: cell-based; details: CAKI-1, Renal, NCI protocol
Description: as §1, §2

[33] = tested on: RXF 393; assay: as above; assay type: cell-based; details: RXF 393, Renal, NCI protocol
Description: as §1, §2

[34] = tested on: SN12C; assay: as above; assay type: cell-based; details: NCI protocol
Description: as §1, §2

[35] = tested on: TK-10; assay: as above; assay type: cell-based; details: TK-10, Renal, NCI protocol
Description: as §1, §2

[36] = tested on: UO-31; assay: as above; assay type: cell-based; details: UO-31, Renal, NCI protocol
Description: as §1, §2

[37] = tested on: DU-145; assay: NCI sixty human tumor cell line screen, Prostate panel; assay type: cell-based; details: DU-145, Prostate, NCI protocol
Description: as §1, §2

[38] = tested on: PC-3; assay: as above; assay type: cell-based; details: PC-3, Prostate, NCI protocol
Description: as §1, §2

[39] = tested on: BT-549; assay: NCI sixty human tumor cell line screen, Breast panel; assay type: cell-based; details: BT-549, Breast, NCI protocol
Description: as §1, §2

[40] = tested on: HS 578T; assay: as above; assay type: cell-based; details: NCI protocol
Description: as §1, §2

[41] = tested on: MDA-MB-31/ATCC; assay: as above; assay type: cell-based; details: NCI protocol
Description: as §1, §2

[42] = tested on: MDA-MB-468; assay: as above; assay type: cell-based; details: MDA-MB-468, Breast, NCI protocol
Description: as §1, §2

[43] = tested on: T-47D; assay: as above; assay type: cell-based; details: T47D, NCI protocol
Description: as §1, §2

`O=C(NCc1cn(Cc2cccc(Oc3ccccc3)c2)nn1)c1cccnc1Nc1ccccc1` [Compound 1a, N-((1-(3-Phenoxybenzyl)-1H-1,2,3-triazol-4-yl)methyl)-2-(phenylamino)nicotinamide] showed a GI50 [1] of 4.81 µM, a GI50 [2] of 5.18 µM and a GI50 [3] of 5.58 µM. For the same molecule, the GI50 [4] was 3.24 µM, the GI50 [5] was 2.85 µM and the GI50 [6] was 2.11 µM. For the same molecule, the GI50 [7] was 2.79 µM, the GI50 [8] was 3.4 µM and the GI50 [9] was 3.65 µM. For the same molecule, the GI50 [10] was 3.63 µM, the GI50 [11] was 3.97 µM and the GI50 [12] was 3.22 µM. For the same molecule, the GI50 [13] was 3.69 µM, the GI50 [14] was 3.1 µM and the GI50 [15] was 3.27 µM. For the same molecule, the GI50 [16] was 1.94 µM, the GI50 [17] was 3.61 µM and the GI50 [18] was 4.54 µM. It also gave a GI50 [19] of 2.86 µM, a GI50 [20] of 2.65 µM and a GI50 [21] of 4.93 µM. The GI50 [22] was 6.05 µM, the GI50 [23] was 3.89 µM and the GI50 [24] was 3.02 µM. It also gave a GI50 [25] of 14 µM, a GI50 [26] of 17.7 µM and a GI50 [27] of 23.4 µM. For the same molecule, the GI50 [28] was 7.44 µM, the GI50 [29] was 5.94 µM and the GI50 [30] was 13.7 µM. It also gave a GI50 [31] of 11.1 µM, a GI50 [32] of 64.2 µM and a GI50 [33] of 5.69 µM. For the same molecule, the GI50 [34] was 52.9 µM, the GI50 [35] was 24.5 µM and the GI50 [36] was 86.3 µM. For the same molecule, the GI50 [37] was 8.58 µM, the GI50 [38] was 20.4 µM and the GI50 [39] was 45.5 µM. It also gave a GI50 [40] of 30.9 µM, a GI50 [41] of 14.5 µM and a GI50 [42] of 51.7 µM. It also gave a GI50 [43] of 21.4 µM and a melting point of 124 to 126 °C.
In the case of `O=C(NCc1cn(Cc2cccc(Oc3ccccc3)c2)nn1)c1cccnc1Nc1ccc(F)cc1` [Compound 1b, 2-(4-Fluorophenylamino)-N-((1-(3-phenoxybenzyl)-1H-1,2,3-triazol4-yl)methyl)nicotinamide], the GI50 [1] is reported as 6.11 µM, the GI50 [2] is reported as 25.3 µM and the GI50 [3] is reported as 60.2 µM. The GI50 [4] was 38.6 µM, the GI50 [5] was 5.25 µM and the GI50 [6] was 10.8 µM. It also gave a GI50 [7] of 6.22 µM, a GI50 [8] of 5.02 µM and a GI50 [9] of 5.6 µM. It also gave a GI50 [10] of 5.61 µM, a GI50 [11] of 6.58 µM and a GI50 [12] of 2.1 µM. For the same molecule, the GI50 [13] was 5.66 µM, the GI50 [14] was 15.1 µM and the GI50 [15] was 20.7 µM. The GI50 [16] was 3.81 µM, the GI50 [17] was 7.12 µM and the GI50 [18] was 61.3 µM. The GI50 [19] was 13.7 µM, the GI50 [20] was 2.79 µM and the GI50 [21] was 7.98 µM. For the same molecule, the GI50 [22] was 34.2 µM, the GI50 [23] was 4.48 µM and the GI50 [24] was 6.51 µM. The GI50 [25] was 2.12 µM, the GI50 [26] was 2.98 µM and the GI50 [27] was 5.19 µM. For the same molecule, the GI50 [28] was 3.72 µM, the GI50 [29] was 3.11 µM and the GI50 [30] was 2.35 µM. It also gave a GI50 [31] of 4.79 µM, a GI50 [32] of 3.41 µM and a GI50 [33] of 2.59 µM. It also gave a GI50 [34] of 4.75 µM, a GI50 [35] of 4.59 µM and a GI50 [36] of 3 µM. For the same molecule, the GI50 [37] was 3.76 µM, the GI50 [38] was 3.86 µM and the GI50 [39] was 4.58 µM. For the same molecule, the GI50 [40] was 5.9 µM, the GI50 [41] was 3.09 µM and the GI50 [42] was 2.32 µM. For the same molecule, the GI50 [43] was 4.03 µM and the melting point was 160 to 162 °C.

— patent US9309225B2, “N-((1-benzyl-1H-1,2,3-triazol-4-yl)methyl)arylamide compounds as potential anticancer agents and a process for the preparation thereof” (COUNCIL OF SCIENTIFIC & INDUSTRIAL RESEARCH, priority 2013, dated 2016)
